Counter-ions that a name gives are not always drawn.
Legend:
[1] = tested on: undesired urotoxic side effects caused by cytostatically active alkylating agents; conditions: background, cited from earlier work; for effect of introducing solutions into the urinary bladder by catheter: instillation, in particular cytostatics at very high dosages; for protective activity against cytostatically active alkylating agents: cysteine compared with salts of mercapto alkane sulfonic acids, cystine = corresponding disulfide
[2] = tested on: kidneys, urinary tracts and urinary bladder; experiment: urotoxic side effects in cancer patients treated with ifosfamide (hematuria, albuminuria, damage to kidney and urinary bladder); type: in vivo, human; conditions: for hematuria under ifosfamide therapy without thiol/disulfide protection: 5 times per day, 5 days
Experimental: In accordance with the known practice of therapy a patient and suffering from a theratoid carcinoma of the testicle, at first is subjected to irradiation and thereafter is treated with ifosfamide [i.e. 2-(N-2-chloroethyl-amino)-3-(2-chloroethyl)-2-oxo-1,3,2-oxazaphosphorinane] at 5 times per day, each time with 60 mg./kg. intravenously and at 5 subsequent days. The patient is simultaneously hydrated by administration of 4 liters of water spread over the day and is alkalinized by administration of hexapotassium hexasodium pentacitrate hydrate complex. […] This necessitated immediate rupture of the therapy. After a recovery period of 14 days, the therapy is repeated. However, 60 mg/kg. of the disodium salt of 2,2'-dithiodi-(ethane sulfonic acid) is administered intravenously and simultaneously with each dose of 60 mg/kg. of ifosfamide. The patient is controlled daily for micro- and […] and for albuminuria.
In another patient suffering from the same tumor, the therapy at first is started with the oral administration of 60 mg./kg. of the disodium salt of 2.2'-dithiodi-(ethane sulfonic acid). Two hours thereafter, 60 mg./kg. of ifosfamide are administered intravenously. The same treatment, i.e. the combination of an oral preadministration of the disodium salt of 2,2'-dithiodi-(ethane sulfonic acid) and a subsequent intravenous administration of 60 mg./kg. of ifosfamide is repeated at 5 subsequent days. […] In both the above treatments a moderate hydration (2 liters per day) has been carried out. The treatment rendered superfluous alkalinization as well as the most burdensome instillation of mercapto group containing compounds into the bladder of the patient by means of a catheter.
According to the general experience with such patients, there occurs very readily […] despite application of all known prophylactic treatments such as hydration, alkalinization or instillation of mercapto group containing compounds into the urinary bladder.
(§1) In accordance with the known practice of therapy, a patient and suffering from a cancer of the ovary, at first is subjected to irradiation and thereafter is treated with ifosfamide [i.e. 2-(N-2-chloroethyl-amino)-3-(2-chloroethyl)-2-oxo-1,3,2-oxazaphosphorinane] at 5 times per day, each time with 60 mg./kg. intravenously and at 5 subsequent days. […] After a recovery period of 14 days the therapy is repeated. However, 35 mg./kg. of the sodium salt of 2-mercapto ethane sulfonic acid is administered intravenously and simultaneously with each dose of 60 mg./kg. of ifosfamide, 60, 120 and, respectively, 180 minutes after this intravenous injection 45 mg. of the disodium salt of 2,2'-dithiodi-(ethanesulfonic acid) each time are administered to the patient. The patient is controlled daily for micro- and macrohematuria and for albuminuria. […] The examination of the urine upon cytotoxic activity at varying times after administration of ifosfamide also was negative.
The same protective treatment was effected with the same favourable results in patients suffering from other cancer deceases such as parvicellular bronchial carcinoma or pancreatic carcinoma.

[3] = examination of the urine upon cytotoxic activity / cytostatically active metabolites after administration of ifosfamide; type: in vivo, human; conditions: Example 4: same combination with sodium salt of 2-mercapto ethane sulfonic acid
Experimental: as §1

CC(=O)N[C@@H](CS)C(=O)O [N-acetylcysteine]
clinical effectiveness of the instillation prophylaxis ([1]; instillation into urinary bladder with cyclophosphamide and ifosfamide at very high dosages): by no means was satisfactory | effect of introducing solutions into the urinary bladder by catheter [1]: very limited

O=S(=O)(O)CCSSCCS(=O)(=O)O [disodium salt of 2,2'-dithiodi-(ethanesulfonic acid)]
erythrocytes, albumina or granular cylindrical cells in the urine ([2]; Example 1: 60 mg/kg i.v. simultaneously with each dose of 60 mg/kg ifosfamide, same patient after 14 days recovery): At no time during the treatment erythrocytes, albumina or granular cylindrical cells were found in the urine of the patient | damage to kidney or urinary bladder, hematuria, albumina or granular cylindrical cells in the urine ([2]; Example 2: 60 mg/kg oral, two hours before ifosfamide 60 mg/kg i.v., 5 subsequent days, moderate hydration 2 liters per day): no indication of any damage to the kidney or the urinary bladder or of hematuria or of albumina or granular cylindrical cells in the urine of the patient at any time during the treatment | damage to the kidneys and the urinary bladder ([2]; Example 3: 60 mg/kg i.v. simultaneously with ifosfamide 60 mg/kg i.v. single dose over 5 days, patient sensibilized by regional radiotherapy): there did not occur any damage to the kidneys and the urinary bladder | hematuria or albuminuria ([2]; Example 4: 35 mg/kg sodium salt of 2-mercapto ethane sulfonic acid i.v. simultaneously with ifosfamide 60 mg/kg, then 45 mg disodium salt of 2,2'-dithiodi-(ethanesulfonic acid) at 60, 120 and 180 minutes): no indication of hematuria or albuminuria | cytostatically active metabolites in the urine ([3]; after ifosfamide): No cytostatically active metabolites were found in the urine | cytotoxic activity of the urine ([3]; varying times after ifosfamide): negative

O=P1(NCCCl)OCCCN1CCCl (stereo not shown) [ifosfamide, 2-(N-2-chloroethyl-amino)-3-(2-chloroethyl)-2-oxo-1,3,2-oxazaphosphorinane]
hematuria under ifosfamide therapy without thiol/disulfide protection ([2]; Example 1: ifosfamide 60 mg/kg i.v., with hydration 4 liters and alkalinization, testicular carcinoma patient): macrohematuria already on the fourth day | hematuria under ifosfamide therapy without thiol/disulfide protection ([2]; Example 4: ifosfamide 60 mg/kg i.v., with hydration and alkalinization, patient with cancer of the ovary): microhematuria

N[C@@H](CS)C(=O)O [cysteine]
protective activity against cytostatically active alkylating agents [1]: limited but distinct protective activity | effect of introducing solutions into the urinary bladder by catheter [1]: very limited

N[C@@H](CSSC[C@H](N)C(=O)O)C(=O)O [cystine]
protective activity against cytostatically active alkylating agents [1]: does not have any such protective activity

— US4218471A, “Process for the treatment of humans suffering from undesired urotoxic side effects caused by cytostatically active alkylating agents” (Asta-Werke Aktiengesellschaft Chemische Fabrik, priority 1978, dated 1980)
